# Measurements published in ChEMBL document CHEMBL1139071, “Diastereoselective synthesis of glycosylated prolines as alpha-glucosidase inhibitors and organocatalyst in asymmetric aldol reaction” (Bioorg Med Chem Lett, 2007).
# pIC50, pKi: −log10 of the molar value.
# Legend:
# Rattus norvegicus = species: Rattus norvegicus; test: Inhibition of rat intestinal alpha-glucosidase at 100 uM
# [1] = Inhibition of rat intestinal alpha-glucosidase
SMILES,inhibition (Rattus norvegicus) [%],pIC50 [1],pKi [1]
CCOC(=O)[C@H]1[C@H]([C@@H]2O[C@@H]3OC(C)(C)O[C@@H]3[C@H]2OCc2ccccc2)[C@@H](C(=O)OCC)N[C@H]1c1cccc([N+](=O)[O-])c1,82.7,4.21,4.48
C[C@H]1O[C@H](O[C@H]2[C@H](O)[C@@H](O)[C@@H](O[C@H]3[C@H](O)[C@@H](O)C(O)O[C@@H]3CO)O[C@@H]2CO)[C@H](O)[C@@H](O)[C@@H]1N[C@H]1C=C(CO)[C@@H](O)[C@H](O)[C@H]1O (stereo partly drawn),39,–,–
"CCOC(=O)[C@H]1[C@H](C2O[C@@H]3OC(C)(C)O[C@@H]3[C@H]2OCc2ccccc2)[C@@H](C(=O)OCC)N[C@H]1c1cccc(Cl)c1 (single isomer, unassigned)",65.5,4.02,4.10
"CCOC(=O)[C@H]1[C@H](C2O[C@@H]3OC(C)(C)O[C@@H]3[C@H]2OCc2ccccc2)[C@@H](C(=O)OCC)N[C@H]1c1ccc(Br)cc1 (single isomer, unassigned)",79.3,4.19,4.44
"CCOC(=O)[C@H]1[C@H](C2O[C@@H]3OC(C)(C)O[C@@H]3[C@H]2OCc2ccccc2)[C@@H](C(=O)OCC)N[C@H]1c1cc(Cl)ccc1Cl (single isomer, unassigned)",67.2,4.00,4.19
"CCOC(=O)[C@H]1[C@H](C2O[C@@H]3OC(C)(C)O[C@@H]3[C@H]2OCc2ccccc2)[C@@H](C(=O)OCC)N[C@H]1c1ccc(F)cc1 (single isomer, unassigned)",43.1,4.12,4.40
"CCOC(=O)[C@H]1[C@H](C2O[C@@H]3OC(C)(C)O[C@@H]3[C@H]2OC)[C@@H](C(=O)OCC)N[C@H]1c1ccc(Br)cc1 (single isomer, unassigned)",26.8,–,–
"CCOC(=O)[C@H]1[C@H](C2O[C@@H]3OC(C)(C)O[C@@H]3[C@H]2OCc2ccccc2)[C@@H](C(=O)O)N[C@H]1c1cc(Cl)ccc1Cl (single isomer, unassigned)",10.5,–,–
"CCOC(=O)[C@H]1[C@H](C2O[C@@H]3OC(C)(C)O[C@@H]3[C@H]2OCc2ccccc2)[C@@H](C(=O)O)N[C@H]1c1ccc(Br)cc1 (single isomer, unassigned)",8.1,–,–
"CCOC(=O)[C@H]1[C@H](C2O[C@@H]3OC(C)(C)O[C@@H]3[C@H]2OCc2ccccc2)[C@@H](C(=O)O)N[C@H]1c1cccc(Cl)c1 (single isomer, unassigned)",24.1,–,–
"CCOC(=O)[C@H]1[C@H](C2O[C@@H]3OC(C)(C)O[C@@H]3[C@H]2OCc2ccccc2)[C@@H](C(=O)O)N[C@H]1c1cccc([N+](=O)[O-])c1 (single isomer, unassigned)",10.3,–,–
"CCOC(=O)[C@H]1[C@H](C2O[C@@H]3OC(C)(C)O[C@@H]3[C@H]2OCc2ccccc2)[C@@H](C(=O)O)N[C@H]1c1cccnc1 (single isomer, unassigned)",5.1,–,–
"CCOC(=O)[C@H]1[C@H](C2O[C@@H]3OC(C)(C)O[C@@H]3[C@H]2OCc2ccccc2)[C@@H](C(=O)OCC)N[C@H]1c1cccnc1 (single isomer, unassigned)",29.3,–,–
